Measurements taken from paper PMC3923730 (Journal of Translational Medicine, 2014).
Marks after values point to notes of the source that are not given here.

Experiments:
[1] = TRO40303 heart level measurement in rats; type: in vivo; conditions: rat, 1 mg/kg i.v. in IL30 10 min before CAO or 10 min before CAR, 5 min post reperfusion, AAR and remainder of left ventricle
Protocol: TRO40303 was administered by intravenous (i.v.) bolus to healthy rats at doses of 0.3, 1, 3 and 10 mg/kg in IL30 under isoflurane gas anaesthesia. A maximum of 0.25 mL of blood was collected into lithium heparin tubes at 5, 15 and 30 min, 1 h, 2 h, 4 h, 8 h and 24 h after drug administration (3 rats per time point). The blood samples were cooled on ice and plasma samples were prepared within 60 min of sampling by centrifugation at 1500 g at 4 °C for 10 min and stored at –20°C until analysis. For heart level measurements, TRO40303 was administrated i.v. to rats undergoing the myocardial infarction procedure at the dose of 1 mg/kg in IL30 either 10 min before CAO or 10 min before CAR. Five min after CAR, rats were anesthetised and sacrificed, hearts were isolated and washed with saline. […] After TRO40303 plasma concentration analysis, TRO40303 plasma AUC(0-∞) (the area under the curve extrapolated from time zero to time infinity), was calculated using Kinetica™, version 4.4.1 (Thermo Electron Corporation, Philadelphia, PA 19103, USA). The results were analyzed in comparison with previous pharmacokinetic data obtained with TRO40303 formulated in HPBCD at 2.5 mg/kg.
Thawed preclinical samples were extracted with acetonitrile, centrifuged, purified on SPEC C2 cartridge (Varian) for the heart samples and analysed along with calibration standards. […]

[2] = Phase I trial pharmacokinetics, single i.v. ascending doses; type: in vivo, human
Protocol: A randomized, double-blind, placebo controlled study was performed to investigate the safety, tolerability and pharmacokinetics of single i.v. ascending doses of TRO40303 in healthy male and post-menopausal female subjects. The choice of the dose and flow rate escalation process is explained in the Result section. Seventy-two healthy volunteers were randomized, with 18 receiving a placebo and 54 an active liposomal formulation containing 20 mg/mL TRO40303 at final doses ranging from 0.5, 1, 2, 3.5, 6, 10 to 13 mg/kg with escalating flow rates from 0.04 mL/min to 35 mL/min. Within each group, 3 or 6 subjects received TRO40303 and 1 or 2 subjects received the same volume of placebo. The sample size was based on the number of doses and flow rates to be investigated. The 6 verum/2 placebo ratio per group is widely used in single ascending dose studies and provides adequate safety and pharmacokinetic information. The 3 verum/1 placebo ratio used in the last groups was chosen only to explore additional flow rates at previously studied doses.
Venous blood samples (5 mL) were collected for determination of TRO40303 concentrations in plasma at pre-dose, end of infusion, then 5 min, 15 min, 30 min, 1 h, 2 h, 4 h, 8 h, 12 h, 16 h, 24 h, 48 h, 72 h and 96 h post end of infusion into heparin–lithium Vacutainer tubes. The blood samples were gently inverted then centrifuged in a refrigerated centrifuge (+4°C) within 30 min after sampling at 1500 g for ca 10 min. The resulting plasma was frozen in two separate labelled polypropylene tubes at –20 ± 5°C until assaying.
For the quantifying TRO40303 levels in human plasma samples, the same method, GLP validated, was used and the analysis was performed at Bertin Pharma (Orleans, France). Analysis was carried out on 1200 Series (Agilent) and Series 200 (Perkin Elmer) systems interfaced to an API 4000 (AB Sciex) MS detector. Calculations were carried out with Analyst 1.4.1 and 1.5.1 (AB Sciex) software.

[3] = human, single i.v., liposomes, 0.5 mg/kg, n = 4
[4] = human, single i.v., liposomes, 0.5 mg/kg, n = 6
[5] = human, single i.v., liposomes, 1 mg/kg, n = 6
[6] = human, single i.v., liposomes, 2 mg/kg, n = 6
[7] = human, single i.v., liposomes, 3.5 mg/kg, n = 9
[8] = human, single i.v., liposomes, 6 mg/kg, n = 11
[9] = human, single i.v., liposomes, 6 mg/kg, n = 12
[10] = human, single i.v., liposomes, 10 mg/kg, n = 9
[11] = human, single i.v., liposomes, 13 mg/kg, n = 6
[12] = human, single i.v., liposomes, over all doses
[13] = liposomes in human, IL30 in rats

In the case of CC(C)CCC[C@@H](C)[C@H]1CC[C@H]2[C@@H]3CC/C(=N\O)[C@](C)(CCCO)[C@H]3CC[C@]12C [TRO40303, 3,5-seco-4-nor-cholestan-5-one oxime-3-ol], the “concentration of TRO40303 in heart tissue” value [1] is reported as ~ 1 μg/g, the “dose proportionality of Cmax and AUC(0-∞)” value ([2]; human, from 0.5 to 6 mg/kg) is reported as “linear” and the “hyper-proportionality of Cmax and AUC(0-∞)” value ([2]; human, from 6 to 13 mg/kg) is reported as ~ 1.5 fold. For the same molecule, the “AUC(0-∞) Mean” value [2, 3] was 15.5* μg.h/mL, the “AUC(0-∞) Min-max” value [2, 3] was 9130 to 20900 ng·h/mL and the “C5min Min-max” value [2, 4] was 1.59 to 3.92 µg/mL. For the same molecule, the “CL Mean” value [2, 4] was 0.598 mL/min/kg, the “CL Min-max” value [2, 4] was 0.399 to 0.912 mL/min/kg and the “Cmax Mean” value [2, 4] was 3320 ng/mL. For the same molecule, the “Cmax Min-max” value [2, 4] was 2310 to 4850 ng/mL, the “Terminal t1/2 Mean” value [2, 4] was 29.5 h and the “Terminal t1/2 Min-max” value [2, 4] was 27.0 to 31.5 h. For the same molecule, the “Vz Mean” value [2, 4] was 1.54 L/kg, the “Vz Min-max” value [2, 4] was 0.00103 to 0.00249 L/kg and the “C5min Mean” value ([2]; human, single i.v., liposomes, 0.5 mg/kg, n = 6, 5 min post end of infusion) was 2.58 µg/mL. The “AUC(0-∞) Mean” value [2, 5] was 34.5 µg·h/mL, the “AUC(0-∞) Min-max” value [2, 5] was 21000 to 43000 ng·h/mL and the “C5min Min-max” value [2, 5] was 5.98 to 12.5 µg/mL. For the same molecule, the “CL Mean” value [2, 5] was 0.509 mL/min/kg, the “CL Min-max” value [2, 5] was 0.388 to 0.792 mL/min/kg and the “Cmax Mean” value [2, 5] was 10300 ng/mL. The “Cmax Min-max” value [2, 5] was 6060 to 14100 ng/mL, the “Terminal t1/2 Mean” value [2, 5] was 25.1 h and the “Terminal t1/2 Min-max” value [2, 5] was 22.9 to 26.8 h. The “Vz Mean” value [2, 5] was 1.11 L/kg, the “Vz Min-max” value [2, 5] was 0.000899 to 0.00177 L/kg and the “C5min Mean” value ([2]; human, single i.v., liposomes, 1 mg/kg, n = 6, 5 min post end of infusion) was 9.26 µg/mL. The “C5min Min-max” value ([2]; human, single i.v., liposomes, 2 mg/kg, n = 5) was 16.7 to 26.8 µg/mL, the “C5min Mean” value ([2]; human, single i.v., liposomes, 2 mg/kg, n = 5, 5 min post end of infusion) was 23.6** μg/mL and the “AUC(0-∞) Mean” value [2, 6] was 68.6 µg·h/mL. The “AUC(0-∞) Min-max” value [2, 6] was 50700 to 81500 ng·h/mL, the “CL Mean” value [2, 6] was 0.499 mL/min/kg and the “CL Min-max” value [2, 6] was 0.409 to 0.657 mL/min/kg. For the same molecule, the “Cmax Mean” value [2, 6] was 23100 ng/mL, the “Cmax Min-max” value [2, 6] was 16000 to 31100 ng/mL and the “Terminal t1/2 Mean” value [2, 6] was 26.4 h. For the same molecule, the “Terminal t1/2 Min-max” value [2, 6] was 24.3 to 28.7 h, the “Vz Mean” value [2, 6] was 1.14 L/kg and the “Vz Min-max” value [2, 6] was 0.00091 to 0.00152 L/kg. The “AUC(0-∞) Mean” value [2, 7] was 109 µg·h/mL, the “AUC(0-∞) Min-max” value [2, 7] was 81000 to 163000 ng·h/mL and the “C5min Min-max” value [2, 7] was 37.1 to 68.7 µg/mL. For the same molecule, the “CL Mean” value [2, 7] was 0.560 mL/min/kg, the “CL Min-max” value [2, 7] was 0.357 to 0.721 mL/min/kg and the “Cmax Mean” value [2, 7] was 51700 ng/mL. For the same molecule, the “Cmax Min-max” value [2, 7] was 37700 to 68700 ng/mL, the “Terminal t1/2 Mean” value [2, 7] was 25.1 h and the “Terminal t1/2 Min-max” value [2, 7] was 23.1 to 27.7 h. The “Vz Mean” value [2, 7] was 1.22 L/kg, the “Vz Min-max” value [2, 7] was 0.000723 to 0.00152 L/kg and the “C5min Mean” value ([2]; human, single i.v., liposomes, 3.5 mg/kg, n = 9, 5 min post end of infusion) was 50.2 µg/mL. For the same molecule, the “AUC(0-∞) Mean” value [2, 8] was 229*** μg.h/mL, the “AUC(0-∞) Min-max” value [2, 8] was 147000 to 307000 ng·h/mL and the “C5min Min-max” value [2, 9] was 51.6 to 266 µg/mL. For the same molecule, the “CL Mean” value [2, 9] was 0.460 mL/min/kg, the “CL Min-max” value [2, 9] was 0.326 to 0.680 mL/min/kg and the “Cmax Mean” value [2, 9] was 118000 ng/mL. The “Cmax Min-max” value [2, 9] was 59500 to 266000 ng/mL, the “Terminal t1/2 Mean” value [2, 9] was 24.4 h and the “Terminal t1/2 Min-max” value [2, 9] was 21.2 to 30.0 h. The “Vz Mean” value [2, 9] was 0.964 L/kg, the “Vz Min-max” value [2, 9] was 0.000611 to 0.00134 L/kg and the “C5min Mean” value ([2]; human, single i.v., liposomes, 6 mg/kg, n = 12, 5 min post end of infusion) was 112 µg/mL. For the same molecule, the “AUC(0-∞) Mean” value [2, 10] was 408 µg·h/mL, the “AUC(0-∞) Min-max” value [2, 10] was 303000 to 501000 ng·h/mL and the “C5min Min-max” value [2, 10] was 120 to 279 µg/mL. The “CL Mean” value [2, 10] was 0.422 mL/min/kg, the “CL Min-max” value [2, 10] was 0.332 to 0.549 mL/min/kg and the “Cmax Mean” value [2, 10] was 194000 ng/mL. For the same molecule, the “Cmax Min-max” value [2, 10] was 130000 to 279000 ng/mL, the “Terminal t1/2 Mean” value [2, 10] was 25.3 h and the “Terminal t1/2 Min-max” value [2, 10] was 19.3 to 30.2 h. The “Vz Mean” value [2, 10] was 0.929 L/kg, the “Vz Min-max” value [2, 10] was 0.000624 to 0.00144 L/kg and the “C5min Mean” value ([2]; human, single i.v., liposomes, 10 mg/kg, n = 9, 5 min post end of infusion) was 193 µg/mL. The “AUC(0-∞) Mean” value [2, 11] was 651 µg·h/mL, the “AUC(0-∞) Min-max” value [2, 11] was 468000 to 814000 ng·h/mL and the “C5min Min-max” value [2, 11] was 148 to 371 µg/mL. For the same molecule, the “CL Mean” value [2, 11] was 0.347 mL/min/kg, the “CL Min-max” value [2, 11] was 0.266 to 0.463 mL/min/kg and the “Cmax Mean” value [2, 11] was 259000 ng/mL. The “Cmax Min-max” value [2, 11] was 167000 to 371000 ng/mL, the “Terminal t1/2 Mean” value [2, 11] was 24.4 h and the “Terminal t1/2 Min-max” value [2, 11] was 20.1 to 28.6 h. The “Vz Mean” value [2, 11] was 0.723 L/kg, the “Vz Min-max” value [2, 11] was 0.000599 to 0.000989 L/kg and the “C5min Mean” value ([2]; human, single i.v., liposomes, 13 mg/kg, n = 6, 5 min post end of infusion) was 248 µg/mL. For the same molecule, the Vz [2, 12] was 1.1 L/kg, the “mean penultimate thalf (when at least 80% of drug was eliminated)” value [2, 12] was 4 h and the mean terminal thalf [2, 12] was 25 h. For the same molecule, the “AUC(0-∞) in humans compared to rats for the same dose” value [2, 13] was ~ 7 fold and the “C5min in humans compared to rats for the same dose” value [2, 13] was ~ 2 fold.
